Assay results reported in PubChem BioAssay (NCI).
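Protocol summary: plate cells (96-well), add compound at 5 concentrations, incubate 48 h, interpolate endpoints linearly. GI50: concentration for 50% inhibition of growth. At the TGI there is no net growth.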

What was measured:
Test in all cases: NCI anticancer screen, dose series, 48 h; in the data active = GI50 below about 0.43 µM; inactive = the rest
[1] = tested on: A549 NSCLC
[2] = tested on: SW-620 colon
[3] = tested on: PC-3 prostate
[4] = tested on: NCI-H460 lung
[5] = tested on: MOLT-4 leukemia
[6] = tested on: HCC-2998 colon
[7] = tested on: SNB-75 CNS
[8] = tested on: SK-MEL-2 melanoma
[9] = tested on: HT29 colon
[10] = tested on: EKVX NSCLC
[11] = tested on: KM12 colon
[12] = tested on: SK-MEL-5 melanoma
[13] = tested on: IGROV1 ovarian
[14] = tested on: LOX IMVI melanoma
[15] = tested on: SR leukemia
[16] = tested on: NCI-H226 lung
[17] = tested on: RPMI-8226 leukemia
[18] = tested on: HOP-62 NSCLC
[19] = tested on: RXF 393 renal
[20] = tested on: CCRF-CEM leukemia
[21] = tested on: COLO 205 colon
[22] = tested on: SK-OV-3 ovarian
[23] = tested on: SF-268 CNS
[24] = tested on: U251 CNS
[25] = tested on: HCT-116 colon
[26] = tested on: OVCAR-4 ovarian
[27] = tested on: CAKI-1 renal
[28] = tested on: NCI-H522 lung
[29] = tested on: SN12C renal
[30] = tested on: OVCAR-5 ovarian
[31] = tested on: SF-295 CNS
[32] = tested on: MDA-MB-435
[33] = tested on: SNB-19 CNS
[34] = tested on: MDA-MB-231 breast
[35] = tested on: OVCAR-3 ovarian
[36] = tested on: HCT-15 colon
[37] = tested on: NCI/ADR-RES ovarian
[38] = tested on: TK-10 renal
[39] = tested on: NCI-H23 lung
[40] = tested on: 786-0 renal
[41] = tested on: HL-60(TB) leukemia
[42] = tested on: A498 renal
[43] = tested on: UACC-257 melanoma
[44] = tested on: OVCAR-8 ovarian
[45] = tested on: SK-MEL-28 melanoma
[46] = tested on: DU-145 prostate
[47] = tested on: T-47D breast
[48] = tested on: SF-539 CNS
[49] = tested on: UACC-62 melanoma
[50] = tested on: ACHN renal
[51] = tested on: HS 578T breast
[52] = tested on: UO-31 renal
[53] = tested on: M14 melanoma
[54] = tested on: MCF7 breast
[55] = tested on: K-562 leukemia
[56] = tested on: BT-549 breast
[57] = tested on: MALME-3M melanoma
[58] = tested on: HOP-92 NSCLC

COc1cccc(N2CCN(c3ncnc4cc[nH]c34)CC2)c1
> 100 µM: TGI [1] | TGI [2] | TGI [3] | TGI [4] | TGI [6] | TGI [9] | TGI [10] | TGI [13] | TGI [14] | TGI [15] | TGI [18] | TGI [19] | TGI [20] | TGI [22] | TGI [23] | TGI [24] | TGI [25] | TGI [26] | TGI [27] | TGI [29] | TGI [30] | TGI [33] | TGI [34] | TGI [35] | TGI [36] | TGI [38] | TGI [39] | TGI [40] | TGI [46] | TGI [48] | TGI [50] | TGI [51] | TGI [52] | TGI [55]
40.4 µM: TGI [37]
75.7 µM: TGI [16]
47.4 µM: TGI [54]
56.1 µM: TGI [44]
active: GI50 [12] 0.394 µM
60.4 µM: TGI [7]
74 µM: TGI [41]
26.8 µM: TGI [56]
2.77 µM: TGI [12]
44.1 µM: TGI [47]
26.3 µM: TGI [53]
85 µM: TGI [11]
79.3 µM: TGI [42]
64.1 µM: TGI [28]
inactive: GI50 [1] 12.2 µM | GI50 [2] 68.6 µM | GI50 [3] 6.99 µM | GI50 [4] 7.19 µM | GI50 [5] 2.46 µM | GI50 [6] 7.19 µM | GI50 [7] 15.1 µM | GI50 [8] 10.3 µM | GI50 [9] 20 µM | GI50 [10] 0.94 µM | GI50 [11] 9.8 µM | GI50 [13] 32.2 µM | GI50 [14] 13.9 µM | GI50 [15] 1.73 µM | GI50 [16] 1.59 µM | GI50 [17] 2.78 µM | GI50 [18] 17.8 µM | GI50 [19] 33.6 µM | GI50 [20] 9.61 µM | GI50 [21] 11.2 µM | GI50 [22] 51.5 µM | GI50 [23] 14.9 µM | GI50 [24] 12.7 µM | GI50 [25] 3.67 µM | GI50 [26] 1.73 µM | GI50 [27] 5.75 µM | GI50 [28] 8.78 µM | GI50 [29] 32.6 µM | GI50 [30] 43.6 µM | GI50 [31] 1.57 µM | GI50 [32] 2.73 µM | GI50 [33] > 100 µM | GI50 [34] 79.9 µM | GI50 [35] 9.51 µM | GI50 [36] 24.4 µM | GI50 [37] 2.87 µM | GI50 [38] 25.5 µM | GI50 [39] 3.47 µM | GI50 [40] 29.1 µM | GI50 [41] 5.84 µM | GI50 [42] 1.65 µM | GI50 [43] 2.32 µM | GI50 [44] 3.46 µM | GI50 [45] 10.7 µM | GI50 [46] 43.2 µM | GI50 [47] 2.92 µM | GI50 [48] 20.8 µM | GI50 [49] 6.05 µM | GI50 [50] 19 µM | GI50 [51] 35.7 µM | GI50 [52] 7.37 µM | GI50 [53] 3.76 µM | GI50 [54] 2.65 µM | GI50 [55] 1.26 µM | GI50 [56] 2.66 µM | GI50 [57] 10 µM
21.4 µM: TGI [5]
43 µM: TGI [31]
29.2 µM: TGI [43]
45.5 µM: TGI [21]
94.8 µM: TGI [17]
62.3 µM: TGI [45]
50.9 µM: TGI [8]
19 µM: TGI [32]
39.8 µM: TGI [49]
55.3 µM: TGI [57]

C[C@@]1(C(=O)O)CCC[C@]2(C)C1CC[C@]13C[C@@](O)(CO)[C@](O)(CC[C@]12O)C3 (stereo not given in full)
inactive: GI50 [1] > 100 µM | GI50 [2] > 100 µM | GI50 [3] > 100 µM | GI50 [4] > 100 µM | GI50 [5] > 100 µM | GI50 [6] > 100 µM | GI50 [7] > 100 µM | GI50 [8] > 100 µM | GI50 [9] > 100 µM | GI50 [10] > 100 µM | GI50 [11] > 100 µM | GI50 [12] > 100 µM | GI50 [13] > 100 µM | GI50 [14] > 100 µM | GI50 [15] > 100 µM | GI50 [16] > 100 µM | GI50 [17] > 100 µM | GI50 [18] > 100 µM | GI50 [19] > 100 µM | GI50 [20] > 100 µM | GI50 [21] > 100 µM | GI50 [22] > 100 µM | GI50 [23] > 100 µM | GI50 [24] > 100 µM | GI50 [25] > 100 µM | GI50 [26] > 100 µM | GI50 [27] > 100 µM | GI50 [28] > 100 µM | GI50 [29] > 100 µM | GI50 [30] > 100 µM | GI50 [31] > 100 µM | GI50 [32] > 100 µM | GI50 [33] > 100 µM | GI50 [34] > 100 µM | GI50 [35] > 100 µM | GI50 [36] > 100 µM | GI50 [37] > 100 µM | GI50 [38] > 100 µM | GI50 [39] > 100 µM | GI50 [40] > 100 µM | GI50 [41] > 100 µM | GI50 [42] 75.1 µM | GI50 [43] > 100 µM | GI50 [44] > 100 µM | GI50 [45] > 100 µM | GI50 [46] > 100 µM | GI50 [47] > 100 µM | GI50 [48] > 100 µM | GI50 [49] > 100 µM | GI50 [50] > 100 µM | GI50 [51] > 100 µM | GI50 [52] > 100 µM | GI50 [53] > 100 µM | GI50 [54] > 100 µM | GI50 [55] > 100 µM | GI50 [56] > 100 µM | GI50 [57] > 100 µM
> 100 µM: TGI [1] | TGI [2] | TGI [3] | TGI [4] | TGI [5] | TGI [6] | TGI [7] | TGI [8] | TGI [9] | TGI [10] | TGI [11] | TGI [12] | TGI [13] | TGI [14] | TGI [15] | TGI [16] | TGI [17] | TGI [18] | TGI [19] | TGI [20] | TGI [21] | TGI [22] | TGI [23] | TGI [24] | TGI [25] | TGI [26] | TGI [27] | TGI [28] | TGI [29] | TGI [30] | TGI [31] | TGI [32] | TGI [33] | TGI [34] | TGI [35] | TGI [36] | TGI [37] | TGI [38] | TGI [39] | TGI [40] | TGI [41] | TGI [42] | TGI [43] | TGI [44] | TGI [45] | TGI [46] | TGI [47] | TGI [48] | TGI [49] | TGI [50] | TGI [51] | TGI [52] | TGI [53] | TGI [54] | TGI [55] | TGI [56] | TGI [57]

CC(=O)CCc1ccc(Oc2c3c(nc4ccccc24)OCC3)cc1
> 100 µM: TGI [1] | TGI [2] | TGI [3] | TGI [4] | TGI [5] | TGI [8] | TGI [9] | TGI [11] | TGI [13] | TGI [14] | TGI [15] | TGI [17] | TGI [18] | TGI [58] | TGI [19] | TGI [20] | TGI [21] | TGI [22] | TGI [23] | TGI [24] | TGI [25] | TGI [26] | TGI [28] | TGI [30] | TGI [33] | TGI [34] | TGI [35] | TGI [36] | TGI [37] | TGI [39] | TGI [40] | TGI [44] | TGI [45] | TGI [46] | TGI [48] | TGI [49] | TGI [50] | TGI [51] | TGI [52] | TGI [53] | TGI [54] | TGI [55] | TGI [56]
50.1 µM: TGI [42]
55.1 µM: TGI [12]
61.7 µM: TGI [7]
98.6 µM: TGI [10]
78.8 µM: TGI [16]
inactive: GI50 [1] 11.7 µM | GI50 [2] > 100 µM | GI50 [3] 82.3 µM | GI50 [4] 29.4 µM | GI50 [5] 91.9 µM | GI50 [6] 32.5 µM | GI50 [7] 14.3 µM | GI50 [8] > 100 µM | GI50 [9] > 100 µM | GI50 [10] 13.8 µM | GI50 [11] > 100 µM | GI50 [12] 16.6 µM | GI50 [13] > 100 µM | GI50 [14] > 100 µM | GI50 [15] 60.2 µM | GI50 [16] 12.3 µM | GI50 [17] 67.7 µM | GI50 [18] > 100 µM | GI50 [58] 42.9 µM | GI50 [19] 22.3 µM | GI50 [20] > 100 µM | GI50 [21] > 100 µM | GI50 [22] 62.1 µM | GI50 [23] 27.5 µM | GI50 [24] 41.7 µM | GI50 [25] > 100 µM | GI50 [26] > 100 µM | GI50 [28] 56.2 µM | GI50 [30] 77 µM | GI50 [33] > 100 µM | GI50 [34] 52 µM | GI50 [35] 31.6 µM | GI50 [36] 58.8 µM | GI50 [37] 29.5 µM | GI50 [39] 35.3 µM | GI50 [40] > 100 µM | GI50 [42] 9.22 µM | GI50 [43] 3.12 µM | GI50 [44] 3.76 µM | GI50 [45] 44.9 µM | GI50 [46] > 100 µM | GI50 [47] 3.7 µM | GI50 [48] 85.7 µM | GI50 [49] 34.1 µM | GI50 [50] 53.9 µM | GI50 [51] 71.4 µM | GI50 [52] 54.4 µM | GI50 [53] > 100 µM | GI50 [54] 60.6 µM | GI50 [55] 59.3 µM | GI50 [56] 67.5 µM
91.8 µM: TGI [6]
30.2 µM: TGI [43]
23.6 µM: TGI [47]
